# Measured values published in PubChem BioAssay (NCI).
#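 All cell lines were grown in 96-well plates and treated with compound for 48 hours. At the GI50, growth is halved. TGI: total growth inhibition.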
# Key:
# Test in all cases: growth of human tumour cells (NCI), 48 h
# CCRF-CEM leukemia = tested on: CCRF-CEM leukemia
# HCT-15 colon = tested on: HCT-15 colon
# HOP-62 NSCLC = tested on: HOP-62 NSCLC
# MOLT-4 leukemia = tested on: MOLT-4 leukemia
# NCI-H23 lung = tested on: NCI-H23 lung
# NCI-H522 lung = tested on: NCI-H522 lung
# SF-295 CNS = tested on: SF-295 CNS
# SN12C renal = tested on: SN12C renal
# SW-620 colon = tested on: SW-620 colon
# TK-10 renal = tested on: TK-10 renal
Compound,GI50 (CCRF-CEM leukemia),TGI (CCRF-CEM leukemia),GI50 (HCT-15 colon),TGI (HCT-15 colon),GI50 (HOP-62 NSCLC),TGI (HOP-62 NSCLC),GI50 (MOLT-4 leukemia),TGI (MOLT-4 leukemia),GI50 (NCI-H23 lung),TGI (NCI-H23 lung),GI50 (NCI-H522 lung),TGI (NCI-H522 lung),GI50 (SF-295 CNS),TGI (SF-295 CNS),GI50 (SN12C renal),TGI (SN12C renal),GI50 (SW-620 colon),TGI (SW-620 colon),GI50 (TK-10 renal),TGI (TK-10 renal)
COc1cccc(NC(=O)c2ccc(NC3=C(Cl)C(=O)N(Cc4ccccc4)C3=O)cc2)c1,1.67 µM,4.35 µM,1.4 µM,2.71 µM,19.1 µM,34.8 µM,2.82 µM,16.2 µM,15.3 µM,28.6 µM,2.49 µM,8.87 µM,10.5 µM,28.8 µM,17.6 µM,37.1 µM,10.3 µM,25.7 µM,20.3 µM,55 µM
O=C1CCC(N2C(=O)c3cccc(NCCOCCOCCNC(=O)c4cc5c(o4)C(=O)c4ccccc4C5=O)c3C2=O)C(=O)N1 (centres undefined),3.45 µM,28.9 µM,4.08 µM,19.2 µM,1.84 µM,3.3 µM,2.73 µM,7.11 µM,0.352 µM,1.71 µM,1.71 µM,4.38 µM,1.68 µM,3.08 µM,1.54 µM,2.92 µM,1.95 µM,4.64 µM,3.81 µM,9.08 µM
COC(=O)c1ccc(/C=C/S(=O)(=O)c2ccccc2)cc1,,> 100 µM,,> 100 µM,,> 100 µM,,> 100 µM,,> 100 µM,,> 100 µM,,> 100 µM,,> 100 µM,,> 100 µM,,> 100 µM
CC(C)Cc1ccc(C(C)/C=C2\CCC(CN3CCCCC3)C2=O)cc1 (centres undefined),,5.51 µM,,7.29 µM,,17.6 µM,,5.7 µM,,20.8 µM,,2.9 µM,,26.5 µM,,4.44 µM,,13.4 µM,,8.95 µM
CC(CCC(=O)O)c1ccc(Br)cc1 (centres undefined),,> 100 µM,,> 100 µM,,> 100 µM,,> 100 µM,,> 100 µM,,> 100 µM,,> 100 µM,,> 100 µM,,> 100 µM,,> 100 µM
CCN(CC)CCC(=O)N1C/C(=C/c2ccccc2)C(=O)/C(=C\c2ccccc2)C1,,0.947 µM,,3.91 µM,,26.1 µM,,1.33 µM,,3.91 µM,,2.29 µM,,5.15 µM,,3.39 µM,,0.629 µM,,18.4 µM
N.N.NCCCCCN.O=C([O-])CC(=O)[O-].O=C([O-])CC(=O)[O-].[Pt+4].[Pt+4],34 µM,> 100 µM,> 100 µM,> 100 µM,43 µM,> 100 µM,65.5 µM,> 100 µM,98.3 µM,> 100 µM,> 100 µM,> 100 µM,73.1 µM,> 100 µM,45.6 µM,> 100 µM,> 100 µM,> 100 µM,> 100 µM,> 100 µM
N/C(=N\N=C\c1ccc(O)c(O)c1)NO,,> 100 µM,,> 100 µM,,> 100 µM,,> 100 µM,,> 100 µM,,> 100 µM,,> 100 µM,,> 100 µM,,> 100 µM,,> 100 µM
COc1ccc(-c2cc(-c3ccc(Cl)cc3)nc(SCCCCCCC(=O)NO)n2)cc1,0.861 µM,14.4 µM,1.46 µM,7.72 µM,1.66 µM,15 µM,0.79 µM,2.93 µM,1.56 µM,7.81 µM,1.2 µM,7.86 µM,1.22 µM,3.01 µM,1.74 µM,8.85 µM,1.43 µM,10.2 µM,2.12 µM,> 50 µM
CCOc1ccc(N=Cc2ccc3ccccc3n2)cc1,,> 100 µM,,> 100 µM,,> 100 µM,,> 100 µM,,> 100 µM,,> 100 µM,,> 100 µM,,> 100 µM,,> 100 µM,,> 100 µM
COc1ccc2c(c1)c(-c1ccc(-c3cn(C)c4ccc(OC)cc34)o1)cn2C,6.46 µM,78.4 µM,4.22 µM,29.7 µM,> 100 µM,> 100 µM,> 100 µM,> 100 µM,17.3 µM,> 100 µM,3.42 µM,10 µM,13.4 µM,62.6 µM,21.6 µM,> 100 µM,4.55 µM,16.7 µM,11 µM,> 100 µM
N#Cc1ccc(NC(=O)Nc2nc3ccc(OC(F)(F)F)cc3s2)cc1,1.51 µM,> 100 µM,1.38 µM,6.45 µM,2.52 µM,8.12 µM,1.88 µM,13.4 µM,0.581 µM,6.02 µM,0.427 µM,3.09 µM,1.18 µM,4.22 µM,1.58 µM,8.64 µM,1.61 µM,12 µM,1.22 µM,7.03 µM
COc1ccc(/C=C2\CCc3ccccc3C2=O)cc1OC,,> 100 µM,,45.5 µM,,> 100 µM,,71.3 µM,,> 100 µM,,47 µM,,95.9 µM,,95.7 µM,,82.5 µM,,> 100 µM
Nc1nc(CC2(O)CCCCC2)cc(-c2ccccc2)n1,,> 95.9 µM,,> 75.5 µM,,> 80.6 µM,,53.9 µM,,> 66.4 µM,,> 100 µM,,> 77.3 µM,,37.4 µM,,65 µM,,> 100 µM
CCOC(=O)C(=O)C(/C(=N/N(C)C)C(=O)Nc1ccc(C)cc1C)c1nc2ccccc2[nH]c1=O (centres undefined),,> 100 µM,,> 100 µM,,> 100 µM,,> 100 µM,,> 100 µM,,> 100 µM,,> 100 µM,,> 100 µM,,> 100 µM,,> 100 µM
O=C(COC(=O)c1cccc2c(=O)c3ccccc3[nH]c12)Nc1ccc(S(=O)(=O)Nc2ncccn2)cc1,,67.4 µM,,> 100 µM,,> 100 µM,,71 µM,,> 100 µM,,58.2 µM,,> 100 µM,,> 100 µM,,> 100 µM,,> 100 µM
O=S(=O)(NCCNc1cc(-c2cn(-c3ccccc3)nc2-c2cccc(O)c2)ccn1)c1ccc(Br)cc1,2.1 µM,6.06 µM,1.8 µM,4.39 µM,2.35 µM,5.99 µM,2.21 µM,5.98 µM,2.7 µM,11.4 µM,2.02 µM,4.69 µM,1.88 µM,3.94 µM,2.14 µM,4.78 µM,3.04 µM,9.68 µM,2.78 µM,9.65 µM
Cc1ccc(-n2c3c(c4c(CN)c(O)ccc42)CCc2ccccc2C3=O)cc1,2.66 µM,8.44 µM,15.9 µM,30.9 µM,17.2 µM,31.7 µM,2.33 µM,6.51 µM,14.1 µM,28.5 µM,9.3 µM,23.6 µM,10.2 µM,22.5 µM,14.2 µM,28.2 µM,2.48 µM,8.19 µM,13.3 µM,26.3 µM
Clc1nc(-c2ccccc2)nc(Cl)c1Cl,,7.99 µM,,21.2 µM,,32.3 µM,,15 µM,,32.6 µM,,9.95 µM,,31.5 µM,,31.4 µM,,15.1 µM,,42.6 µM
CCCC(=O)Nc1c(I)cc(I)c(CC(CC)C(=O)O)c1I (centres undefined),> 100 µM,> 100 µM,> 100 µM,> 100 µM,> 100 µM,> 100 µM,> 100 µM,> 100 µM,> 100 µM,> 100 µM,> 100 µM,> 100 µM,> 100 µM,> 100 µM,> 100 µM,> 100 µM,> 100 µM,> 100 µM,> 100 µM,> 100 µM
COc1cc2ccc3c4cc(OC)c(OC(C)C)cc4c[n+](C)c3c2cc1OC,,> 100 µM,,> 100 µM,,> 100 µM,,> 100 µM,,> 100 µM,,70.1 µM,,> 100 µM,,> 100 µM,,> 100 µM,,> 100 µM
CN1CCN(c2ccc(-c3cccc(CN4CCOCC4)c3)cc2NC(=O)c2c[nH]c(=O)cc2C(F)(F)F)CC1,58.8 µM,> 100 µM,50.3 µM,> 100 µM,> 100 µM,> 100 µM,19 µM,64 µM,> 100 µM,> 100 µM,16.7 µM,39.5 µM,33.1 µM,> 100 µM,> 100 µM,> 100 µM,33.6 µM,> 100 µM,68.7 µM,> 100 µM
CC(C)=CCc1c(O)c(C(=O)CC(C)C)c(O)c2c(-c3ccccc3)cc(=O)oc12,5.11 µM,> 50 µM,7.11 µM,> 50 µM,15.4 µM,> 50 µM,10.3 µM,> 50 µM,6.84 µM,> 50 µM,7.02 µM,28.2 µM,10 µM,43.5 µM,6.07 µM,> 50 µM,14.5 µM,> 50 µM,9.98 µM,> 50 µM
CCCCCCC/C=C1\CCC(CN(C)C)C1=O (centres undefined),,13 µM,,21.7 µM,,32.3 µM,,7 µM,,32.7 µM,,11.2 µM,,30.1 µM,,17.5 µM,,18 µM,,16.5 µM
CCN(CC)/[N+]([O-])=N/OCC(C)O (centres undefined),,> 100 µM,,> 100 µM,,> 100 µM,,> 100 µM,,> 100 µM,,> 100 µM,,> 100 µM,,> 100 µM,,> 100 µM,,> 100 µM
COC1C(O)CC(OC2CC(OC3CC(O[C@@H]4C(=O)c5c(cc6cc(OC7CC(OC8CC(O)C(O)C(C)O8)C(O)C(C)O7)c(C)c(O)c6c5O)CC4[C@H](OC)[C@@H](O)C(C)=O)OC(C)C3O)OC(C)C2O)OC1C (some centres undefined),0.0233 µM,> 33.3 µM,0.335 µM,> 33.3 µM,0.0171 µM,0.154 µM,0.00749 µM,0.34 µM,0.00333 µM,1.12 µM,0.016 µM,0.0648 µM,0.00752 µM,> 33.3 µM,0.0192 µM,> 33.3 µM,0.0125 µM,> 33.3 µM,0.0257 µM,> 33.3 µM
O=C(Nc1ccc(-n2ccc3c(NC(=O)c4ccccc4)nccc32)cc1)c1ccc(N2CCOCC2)c(C(F)(F)F)c1,0.44 µM,> 100 µM,,> 43.4 µM,1.74 µM,23.1 µM,0.0421 µM,> 100 µM,1.39 µM,> 44.8 µM,0.363 µM,18.2 µM,0.0621 µM,1.7 µM,3.93 µM,> 100 µM,0.0697 µM,> 100 µM,0.449 µM,26.1 µM
COc1ccc(C(=O)c2cc(C)c(OC)c(C)c2)c(OC)c1N(C(=O)CCl)C(=O)CCl,0.166 µM,> 37.8 µM,0.0537 µM,14.2 µM,0.0546 µM,25 µM,0.172 µM,24.2 µM,0.0696 µM,14.2 µM,0.0349 µM,0.906 µM,0.0321 µM,15.5 µM,0.0831 µM,20.9 µM,0.0432 µM,19.3 µM,13.4 µM,> 100 µM
NC(N)=NC(N)=Nc1ccc(S(N)(=O)=O)cc1,,> 100 µM,,> 100 µM,,> 100 µM,,> 100 µM,,> 100 µM,,> 100 µM,,> 100 µM,,> 100 µM,,> 100 µM,,> 100 µM
Cc1ccccc1C[P+](c1ccccc1)(c1ccccc1)c1ccccc1,2.04 µM,> 100 µM,27.9 µM,> 100 µM,1.79 µM,58.9 µM,4.9 µM,> 100 µM,1.97 µM,> 100 µM,0.78 µM,5.73 µM,2.34 µM,> 100 µM,2.42 µM,> 100 µM,2.33 µM,> 100 µM,1.2 µM,30.2 µM
